Data taken from US8476235B2 (Apotex Technologies Inc., priority 2006, dated 2013).
Values after ≈ are worked out from the molar mass of the structure shown. Like-named read-outs stand apart in the source and are kept apart here.

How the values were obtained:
[1] = HPLC method B
Description: In method B, the samples are analyzed with a normal reverse phase column, there is virtually no difference in the retention times of the samples.

[2] = speciation calculation using experimentally determined pKas (FIG. 8); assay type: physicochemical; details: pH 2.7, concentration 0.5M
Description: FIG. 8 illustrates the speciation calculation of the dipeptide H-D-iGlu-D-Trp-OH and its salt using experimentally determined pKas of the acid and amine groups. LH2 is the diacid form of the peptide H-D-iGlu-D-Trp-OH, LH is the mono carboxylic acid salt of H-D-iGlu-D-Trp-OH. An example of such is the mono ammonium salt. L refers to the diacid salt form and one such example is the disodium salt of the peptide H-D-iGlu-D-Trp-OH.
The pKas of the acid and amine groups of H-D-iGlu-D-Trp-OH are experimentally determined. In FIG. 8, LH2 is thymodepressin, LH is the monocarboxylic acid salt, L is the dicarboxylic acid salt, and LH3 is the acid addition salt of thymodepressin. The X axis provides the pH of the solution. The Y axis provides the % formation relative to L (the default terminology of the software) and reports the molar fraction of the species present at a particular pH. The concentration of 0.5M is used to reflect the equivalency of 1 gm of thymodepressin in 6 ml water during isolation purposes. […] For this reason, thymodepressin precipitates at pH 2.7 and can be filtered. The mother liquor can be concentrated to obtain a second crop of thymodepressin. The plot confirms the theoretical prediction that the diacid form of H-D-iGlu-D-Trp-OH predominates at pH of about 2.5 to about 3.0, which is the pH for the isolation of the diacid from water as a precipitate. […]

water solubility = assay type: physicochemical; details: in water, organic solvent free
pH of solution = assay type: physicochemical; details: in solution
[3] = solid form, cited from earlier work

With “D-isoglutamyl-D-tryptophan, mono ammonium salt (1:1)” as the compound, how does the “purity at 254 nm after 2 years of storage” value [1] read?
Its value is 99.8%.

What does the source list for N[C@H](CCC(=O)N[C@H](Cc1c[nH]c2ccccc12)C(=O)O)C(=O)O [thymodepressin, D-isoglutamyl-D-tryptophan]?
molar fraction present as dicarboxylic acid form (LH2) [2]: about 75%; water solubility (water solubility; listed as H-D-iGlu-D-Trp-OH): < 23 mg per mL; water solubility (water solubility; listed as crystalline thymodepressin): about 20 mg per mL; solubility (water solubility; water): ~23 mg/mL (≈ 69 mM); pH of a solution (pH of solution): about 3

With “D-isoglutamyl-D-tryptophan disodium salt” as the compound, how does the “hygroscopicity (in words)” value ([3]; listed as D-isoglutamyl-D-tryptophan disodium salt) read?
The value was “hygroscopic”.

And the “hygroscopicity (in words)” value ([3]; disodium salt)?
Its value is “extremely hygroscopic”.
